For data set [1], the system named is human PBMCs. The data set is described as follows: PBMC proliferation, MTT assay. The following applies: purified 14-3-3ζ 300 ng/ml and 1000 ng/ml, by 8 d; PHA 1% positive control. The data set is classed as cell-based. Here is the method:
Blood from healthy donors was collected as per the approved IRB protocol. The protocol for isolation of PBMCs was previously reported. In short, whole blood was diluted with an equal volume of RPMI before layering on Ficoll-Paque PLUS in a 15 mL tube. Tubes were then centrifuged for 25 minutes with the brakes off at 950 g. PBMCs were collected from the layer between the plasma and Ficoll liquid. PBMCs were then washed twice with RPMI, with 7 min spins at 350×g to pellet the cells. Finally, cells were resuspended in complete RPMI before counting and plating. […] Phytohemagglutinin (PHA) was used as a positive control. 10 μl MTT was added at a concentration of 5 mg/mL, and the plate was further incubated at 37° C. in the dark for 3 hours. Supernatant was then removed, and 100 μL DMSO was added for another hour before reading the absorbance at 570 nm using FLUOstar Omega microplate reader (BMG Labtech). For T cell differentiation, PBMCs were incubated with 1 μg/ml of 14-3-3ζ for 7 days followed by either the cellular staining for FACS analysis or ELISPOT as per manufacture's protocol.
(Tetrazolium dyes change colour on reduction, which living cells bring about.)

Data set [2] has as its system human PBMCs. The data set is described as follows: T cell polarization of PBMCs by flow cytometry (CD4, CD366, IL-17, CD8, CD69). The data set is classed as cell-based. Here is the method:
Cells were plated with 14-3-3ζ protein in a 96-well plate for 14 days at 37° C. in complete RPMI culture medium. Phytohemagglutinin (PHA) was used as a positive control. 10 μl MTT was added at a concentration of 5 mg/mL, and the plate was further incubated at 37° C. in the dark for 3 hours. Supernatant was then removed, and 100 μL DMSO was added for another hour before reading the absorbance at 570 nm using FLUOstar Omega microplate reader (BMG Labtech). For T cell differentiation, PBMCs were incubated with 1 μg/ml of 14-3-3ζ for 7 days followed by either the cellular staining for FACS analysis or ELISPOT as per manufacture's protocol. […] PBMCs incubated with 14-3-3ζ for 7 days at 37° C. were fixed in 2% paraformaldehyde for an hour, and washed with PBS. […] For surface staining, cells were stained in 50 μL PBS with 5 μl per million cells antibody for 30 minutes in the dark on ice. For intracellular staining, cells were permeabilized with Triton for 10-15 min. After staining, cells were washed with PBS and resuspended in 1 mL PBS for analysis. The following antibodies from Biolegend Inc. were used: […] Cells were sorted at FACSCanto II system (BD Biosciences) and analyzed using FlowJo software (version 10). A gate was created around an initial population of cells in the FSC-SSC plot, and this population of cells was further analyzed for CD4, CD366, and IL-17 expression. Unstained and isotype labelled cells were used as a control for setting the gates.
(In general: A flow cytometer gives signals particle by particle.)

The subject of data set [3] is human PBMCs. The data set is described as follows: ELISPOT assay of IFN-γ and IL-17 secreting cells. The data set is classed as cell-based. The protocol: Cells were plated with 14-3-3ζ protein in a 96-well plate for 14 days at 37° C. in complete RPMI culture medium. Phytohemagglutinin (PHA) was used as a positive control. 10 μl MTT was added at a concentration of 5 mg/mL, and the plate was further incubated at 37° C. in the dark for 3 hours. Supernatant was then removed, and 100 μL DMSO was added for another hour before reading the absorbance at 570 nm using FLUOstar Omega microplate reader (BMG Labtech). For T cell differentiation, PBMCs were incubated with 1 μg/ml of 14-3-3ζ for 7 days followed by either the cellular staining for FACS analysis or ELISPOT as per manufacture's protocol. For testing the effect of drugs, prednisolone, prednisone, as well as TJU103, were used at 1 μg/ml concentration and cyclophosphamide was used at 0.1 μg/ml concentration.
The protocol was adopted from Immunospot kit from Cellular Technology Limited. In short, PBMCs incubated with 14-3-3ζ for 7 days were plated on the antibody coated ELISPOT plates. About 100,000 cells/well were added and incubated for 2 days at 37° C. followed by the developing protocol. Plates were read with a Quantihub ELISPOT plate reader and manually counted.

In data set [4] the test system is human PBMCs. The data set is described as follows: ELISA of secreted (accumulated) cytokines of PBMCs. The data set is classed as cell-based. The note with it: PBMC in the presence of 14-3-3ζ. (ELISA stands for enzyme-linked immunosorbent assay.)
For the next data set, the system named is Lewis rats. Briefly: Pristane-induced arthritis (PIA) model, immunization with 14-3-3ζ in IFA. The data set is classed as in vivo, rat. Here is the method: FIG. 12A depicts the process used for this example for evaluating the prevention of RA in rats. All animals were injected with 150 μl of Pristane subcutaneously at the root of the tail followed by injecting either 1 mg/kg of IFA mixed with 14-3-3ζ protein or IFA alone the next day. Additional injection of either IFA alone or mixed with 14-3-3ζ proteins were given after one week. Animals were evaluated twice every week. Each joint (20 per paw, total of 80 per animal) was scored for inflammation. Both male and female rats were equally divided (n=6-8) between IFA and 14-3-3ζ treated sets. Rats were euthanized at 43 d and blood was collected for analysis.
Exposure to 14-3-3ζ generates a strong immune response in Lewis rats. Due to highly reproducible induction of severe inflammation and chronic arthritis, PIA is a one of the standard models to investigate rheumatoid arthritis an autoimmune disease. Intradermal injection of Pristane leads to a strong T-cell infiltration, followed by a cytokine increase as well as visual manifestation of joint inflammation, prominently observed in the Lewis rats. To test the antigenic role of 14-3-3ζ in vivo, purified 14-3-3ζ protein was injected along with IFA one day after the animals were treated with Pristane (FIG. 12A).
The animals were immunized with either IFA alone, or mixed with 14-3-3ζ (IFA+Z, 1 mg/kg) at 1 and 7 d-post pristine injection. Animals were monitored and scored for RA.

Data set [5] relates to PBMC isolated from normal Lewis rats. Briefly: Proliferation of rat PBMC incubated ex vivo. The data set is classed as cell-based. The following applies: incubated with 14-3-3ζ ex vivo.
The next data set concerns rats. The data set is described as follows: Immunization of rats with IFA and 14-3-3ζ without pristane. The data set is classed as in vivo, rat. The following applies: pristane absent.
For a further data set, the system named is 14-3-3ζ KO rats. Briefly: Pristane-induced arthritis in 14-3-3ζ KO rats, 14-3-3ζ immunization. The data set is classed as in vivo, rat. The note with it: IFA+14-3-3ζ vs IFA, days post-pristane. From the text:
FIGS. 16A-16B, to determine whether 14-3-3ζ is sufficient for RA suppression, 14-3-3ζ KO rats that are more susceptible to RA were used.

Data set [6] relates to human PBMCs. Briefly: T cell polarization of PBMCs by flow cytometry (CD4, CD366, IL-17, CD8, CD69). The following applies: incubated with 14-3-3ζ, 3 d. The data set is classed as cell-based.
Where [7] appears, read: PIA treated Lewis rats immunized with 14-3-3ζ.

Entries after “also recorded” stand apart in the source; their conditions may differ.

On to “14-3-3ζ: human 14-3-3ζ protein, SEQ ID NO: 1, purified from E. coli; injected mixed with IFA in rats”, for which the “PBMC proliferation (MTT assay)” value in the data set on human PBMCs [1] was “promoted; also recorded: strong proliferation induction; also recorded: comparable and dose-dependent effect”. Also, the “CD8+ cells (total number or activation)” value with human PBMCs [2] (14-3-3ζ treated PBMC) is given as “No significant increase; also recorded: No change; also recorded: no significant effect”. Also, the “total number of CD4+ cells” value with human PBMCs [2] (14-3-3ζ treated PBMC, 7 d) was “no significant change”. Besides, the “CD4 cells positive for both CD366 and IL-17 (minor population <1%)” value with human PBMCs [2] (presence of 14-3-3ζ) was “unchanged”. For the same substance, the “CD366 or IL-17 positive CD4 cells (Th1, Th17)” value with human PBMCs [2] (protein 1 μg/ml, 7 d) was “more CD366 or IL-17 positive CD4 cells; also recorded: significant increase”. Besides, the “level of IFN-γ (number of IFN-γ colonies) compared with 14-3-3ε” value with human PBMCs [3] (FIG. 6B and FIG. 12L) was “significantly more than 14-3-3ε”. In the data set with human PBMCs [3] (PBMC treated with protein for 7 d), the “number of IFN-γ and IL-17 secreting cells” value is reported as “robust response; also recorded: robust increase”. In the data set with human PBMCs [4], the IL-6 level entry is recorded as “no significant effect”, the “accumulated secreted IL-17 (IL-17A)” value is given as “significant increased accumulation” and the “levels of IL-10 or IL-12” value is listed as “no effect”. Also, in the data set on Lewis rats (Lewis rats, pristane, 14-3-3ζ 1 mg/kg mixed with IFA at 1 and 7 d post pristane, compared to IFA alone, 1 mg/kg), the “joint inflammation / arthritis (RA) score” value is on record as “protection against rheumatoid arthritis; also recorded: protection against the arthritis; also recorded: significantly less inflammation of joints; also recorded: significant reduction of RA scores; also recorded: absent; also recorded: relatively stronger inflammation in IFA treatment compared to 14-3-3ζ treatment; also recorded: no sign of arthritis; also recorded: prevents the development of RA”. For the same substance, in the data set on Lewis rats (setting [7]), the “increase in the level of IFN-γ in the circulating sera” value lay in the range of 10 to 15 folds, the “increase in the level of IL-17 in the circulating sera” value lay within 10 to 15 folds and the “increase in the level of anti-14-3-3ζ IgG in the circulating sera” value was in the range of 10 to 15 folds. Also, in the data set on Lewis rats (compared to IFA alone), the “anti-14-3-3ζ antibody level (sera, synovial fluid)” value is reported as “significant production of anti-14-3-3ζ IgG; also recorded: significantly higher levels; also recorded: increased 14-3-3ζ antibody levels”; the “circulating (sera) IFN-γ level” value is “significantly higher levels; also recorded: much higher levels”; the “circulating IL-17 level” value is listed as “significantly higher levels”. Also, the “H&E stain: immune cell infiltration and tissue damage” value with Lewis rats (compared to IFA treated animal) was “lesser sign of inflammation and damage”. For the same substance, in data set [5], the “rat PBMC proliferation” value is “increased proliferation”. For the same substance, the “induction of RA pathology (pathogenicity)” value in the data set with rats (IFA and 14-3-3ζ) is “no significant induction of RA pathology”. Besides, in the data set with rats, the “immunogenicity: 14-3-3ζ antibody generation and IL-17 induction” value is 14-3-3ζ antibody generation and IL-17 induction. In the data set on 14-3-3ζ KO rats, the RA score entry is on record as “suppressed the RA” and the body weight entry is “gain in body weights”. In the data set on human PBMCs [6], the “CD69 expression on T cells (CD4 cells)” value was “increases CD69 expression; also recorded: increased; also recorded: strong impact”.

The values above are taken from patent publication US12226449B2, “Materials and methods for the prevention of rheumatoid arthritis” (The University of Toledo, priority 2018, dated 2025).
